Tested on: Geobacillus stearothermophilus spores (ATCC 7953)
Experiment: Fluorescence of enzyme substrates in culture media with Geobacillus stearothermophilus spores (96-well plate, 60° C.)
Format: cell-based
Conditions: for MEASURED FLUORESCENCE, RFU 10 Sec / MEASURED FLUORESCENCE, RFU +5 min / MEASURED FLUORESCENCE, RFU +10 min / MEASURED FLUORESCENCE, RFU +30 min / MEASURED FLUORESCENCE, RFU 10 sec: substrate 0.3 mg/mL, 60° C.; for fluorescent signal in the presence of Geobacillus stearothermophilus spores compared with MUG and 8F-MUG: high and low spore levels, two low pH levels, MUG also at its optimal pH of 8.0
Procedure: Culture media was prepared by dissolving by dissolving 2 g/L phytone peptone (BD BBL 211906) and 0.2 g/L L-alanine (Sigma 05129) in deionized water. 1N NaOH or 0.1 N HCl were used to adjust pH, and media were brought to volume and filter sterilizing using a 0.22 micron polyethersulfone (PES) filter. Stock solutions (25 mg/ml) of 6′-chloro-4′-methylumbelliferyl-a-D-glucopyranoside, 8′-chloro-4′-methylumbelliferyl-a-D-glucopyranoside, 8′-fluoro-4′-methylumbelliferyl-a-D-glucopyranoside, and 4-methylumbelliferyl-a-D-glucopyranoside were prepared in DMSO. The fluorogenic a-glucosidase substrates were added to culture media at a final concentration of 0.3 mg/ml.
(§1) Culture media (pH 6.7) containing 6′-chloro-4′-methylumbelliferyl α-D-glucopyranoside (0.3 mg/mL) was each added to eight wells (100 microliters per well) of a black 96-well microtiter plate with (NUNC #165301, Thermo Fisher Scientific, Waltham, Massachusetts). A 5-microliter aqueous suspension containing 5×10^3 Geobacillus stearothermophilus spores (ATCC 7953) was added to 4 of the wells for each medium in the microtiter plate. […] The top of the plate was covered with an optically clear sealing film (product #4311971, Applied Biosystems Corporation, Foster City, California). The plate was warmed at 60° C. and shaken in a linear direction. Fluorescence readings (360 nm excitation/450 nm emission at 50% gain) were taken from the bottom of the plate. A reading was taken at an initial time point of 10 seconds and then at +1-minute intervals thereafter. A Synergy Neo2 fluorescence plate reader (BioTek Company, Winooski, Vermont) was used. In Table 1, the mean fluorescence values detected (RFU) at times of 10 seconds, +5 minutes, +10 minutes, and +30 minutes are reported. The mean fluorescence values detected for the control wells were 511 RFU at 10 seconds; 426 RFU at +5 minutes: 373 RFU at +10 minutes, and 310 RFU at +30 minutes.
as §1, with “(pH 7.0)” for “(pH 6.7)”, “Table 2,” for “Table 1,”, “were 512” for “were 511”, “seconds; 417” for “seconds; 426”, “+5 minutes; 363” for “+5 minutes: 373”, “and 308” for “and 310”
Culture media (pH 6.7) containing 6′-chloro-4′-methylumbelliferyl α-D-glucopyranoside (0.3 mg/mL) was each added to eight wells (100 microliters per well) of a black 96-well microtiter plate with (NUNC #165301, Thermo Fisher Scientific, Waltham, Massachusetts). A 5-microliter aqueous suspension containing 5×10^5 Geobacillus stearothermophilus spores (ATCC 7953) was added to 4 of the wells for each medium in the microtiter plate. […] The top of the plate was covered with an optically clear sealing film (product #4311971, Applied Biosystems Corporation, Foster City, California). The plate was warmed at 60° C. and shaken in a linear direction. Fluorescence readings (360 nm excitation/450 nm emission at 50% gain) were taken from the bottom of the plate. […]

[1] = 5 × 10^3 spores, culture media pH 6.7, 360 nm ex/450 nm em
[2] = 5 × 10^3 spores, culture media pH 6.7
[3] = 5 × 10^3 spores, culture media pH 7.0
[4] = 5 × 10^5 spores, culture media pH 6.7
[5] = 5 × 10^5 spores, culture media pH 7.0
[6] = 5 × 10^3 spores, culture media pH 8.0
[7] = 5 × 10^5 spores, culture media pH 8.0

| fluorescent signal in the presence of Geobacillus stearothermophilus spores compared with MUG and 8F-MUG | Structure (SMILES) | MEASURED FLUORESCENCE, RFU 10 Sec [1] [RFU] | MEASURED FLUORESCENCE, RFU +5 min [2] [RFU] | MEASURED FLUORESCENCE, RFU +10 min [2] [RFU] | MEASURED FLUORESCENCE, RFU +30 min [2] [RFU] | MEASURED FLUORESCENCE, RFU 10 Sec [3] [RFU] | MEASURED FLUORESCENCE, RFU +5 min [3] [RFU] | MEASURED FLUORESCENCE, RFU +10 min [3] [RFU] | MEASURED FLUORESCENCE, RFU +30 min [3] [RFU] | MEASURED FLUORESCENCE, RFU 10 sec [4] [RFU] | MEASURED FLUORESCENCE, RFU +5 min [4] [RFU] | MEASURED FLUORESCENCE, RFU +10 min [4] [RFU] | MEASURED FLUORESCENCE, RFU +30 min [4] [RFU] | MEASURED FLUORESCENCE, RFU 10 sec [5] [RFU] | MEASURED FLUORESCENCE, RFU +5 min [5] [RFU] | MEASURED FLUORESCENCE, RFU +10 min [5] [RFU] | MEASURED FLUORESCENCE, RFU +30 min [5] [RFU] | other results |
| --- | --- | --- | --- | --- | --- | --- | --- | --- | --- | --- | --- | --- | --- | --- | --- | --- | --- | --- |
| higher fluorescent signal | Cc1cc(=O)oc2cc(O[C@H]3O[C@H](CO)[C@@H](O)[C@H](O)[C@H]3O)c(Cl)cc12 [Example 1, 6′-chloro-4′-methylumbelliferyl α-D-glucopyranoside] | 1013 | 2251 | 4622 | 12582 | 1226 | 2377 | 4424 | 11941 | 17227 | 53202 | 79375 | 98077 | 18386 | 53621 | 81061 | 99019 |  |
| higher fluorescent signal | Cc1cc(=O)oc2c(Cl)c(O[C@H]3O[C@H](CO)[C@@H](O)[C@H](O)[C@H]3O)ccc12 [Example 2, 8′-chloro-4′-methylumbelliferyl α-D-glucopyranoside] | 1164 | 3013 | 6278 | 15253 | 1500 | 3370 | 6612 | 16521 | 21302 | 56949 | 73987 | 81560 | 21883 | 58454 | 77112 | 83010 |  |
|  | Cc1cc(=O)oc2c(F)c(O[C@H]3O[C@H](CO)[C@@H](O)[C@H](O)[C@H]3O)ccc12 [Example 8F-MUG, 8′-fluoro-4′-methylumbelliferyl α-D-glucopyranoside, reference compound] | 693 | 1422 | 2869 | 8410 | 777 | 1573 | 3153 | 9038 | 8975 | 31069 | 50175 | 67041 | 8171 | 34178 | 56663 | 70392 |  |
|  | Cc1cc(=O)oc2cc(O[C@H]3O[C@H](CO)[C@@H](O)[C@H](O)[C@H]3O)ccc12 [MUG, 4′-methylumbelliferyl-α-D-glucopyranoside, reference compound] | 430 | 403 | 464 | 991 |  |  |  |  | 895 | 3260 | 8049 | 29586 |  |  |  |  | MEASURED FLUORESCENCE, RFU 10 Sec [6]: 540 RFU; MEASURED FLUORESCENCE, RFU +5 min [6]: 658 RFU; MEASURED FLUORESCENCE, RFU +10 min [6]: 993 RFU; MEASURED FLUORESCENCE, RFU +30 min [6]: 2891 RFU; MEASURED FLUORESCENCE, RFU 10 sec [7]: 2644 RFU; MEASURED FLUORESCENCE, RFU +5 min [7]: 12059 RFU; MEASURED FLUORESCENCE, RFU +10 min [7]: 29277 RFU; MEASURED FLUORESCENCE, RFU +30 min [7]: 75861 RFU |
